Laboratory results taken from PMC8617627, “Novel DYRK1A Inhibitor Rescues Learning and Memory Deficits in a Mouse Model of Down Syndrome” (Pharmaceuticals, 2021).
Read-outs that look alike come from different tables or passages of the source.

Experiments:
Experiment in all cases: Kinase profile (33P ATP filter binding)
Type in all cases: biochemical
TTBK1 = TTBK1 (Homo sapiens, UniProt Q5TCY1); conditions: read-out: Remaining protein kinase activity
ULK1 = target: T1, ULK1 (Homo sapiens, UniProt O75385)
T1 sequence (O75385 1-1050): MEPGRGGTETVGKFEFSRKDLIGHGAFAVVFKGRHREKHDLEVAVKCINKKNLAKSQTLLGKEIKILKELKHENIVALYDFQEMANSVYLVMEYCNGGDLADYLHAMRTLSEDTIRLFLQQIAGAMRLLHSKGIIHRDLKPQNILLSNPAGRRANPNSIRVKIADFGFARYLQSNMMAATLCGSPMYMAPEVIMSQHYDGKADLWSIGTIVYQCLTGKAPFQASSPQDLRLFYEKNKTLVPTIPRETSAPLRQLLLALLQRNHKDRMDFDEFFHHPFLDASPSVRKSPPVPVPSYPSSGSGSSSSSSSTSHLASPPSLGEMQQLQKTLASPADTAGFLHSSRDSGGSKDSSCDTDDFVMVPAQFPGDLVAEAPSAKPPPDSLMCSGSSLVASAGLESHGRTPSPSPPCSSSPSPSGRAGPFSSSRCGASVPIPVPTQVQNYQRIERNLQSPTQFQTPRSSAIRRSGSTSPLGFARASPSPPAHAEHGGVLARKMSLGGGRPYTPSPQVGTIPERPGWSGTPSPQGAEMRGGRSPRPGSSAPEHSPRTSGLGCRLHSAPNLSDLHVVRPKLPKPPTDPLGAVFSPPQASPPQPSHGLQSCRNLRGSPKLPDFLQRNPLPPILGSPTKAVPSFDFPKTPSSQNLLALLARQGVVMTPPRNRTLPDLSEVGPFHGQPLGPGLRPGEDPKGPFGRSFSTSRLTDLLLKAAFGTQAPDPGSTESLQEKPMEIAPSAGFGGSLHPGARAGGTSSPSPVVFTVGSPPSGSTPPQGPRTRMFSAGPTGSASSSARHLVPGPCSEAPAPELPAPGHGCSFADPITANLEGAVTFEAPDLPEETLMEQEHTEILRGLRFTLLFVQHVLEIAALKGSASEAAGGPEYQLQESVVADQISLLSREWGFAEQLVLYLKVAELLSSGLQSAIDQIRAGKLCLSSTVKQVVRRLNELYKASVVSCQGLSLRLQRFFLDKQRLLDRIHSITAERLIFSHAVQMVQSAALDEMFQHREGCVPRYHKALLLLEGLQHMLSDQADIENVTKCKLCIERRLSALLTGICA

p38g MAPK = target: T2, p38g MAPK (Homo sapiens, UniProt P53778); conditions: read-out: Remaining protein kinase activity
T2 sequence (P53778 1-367): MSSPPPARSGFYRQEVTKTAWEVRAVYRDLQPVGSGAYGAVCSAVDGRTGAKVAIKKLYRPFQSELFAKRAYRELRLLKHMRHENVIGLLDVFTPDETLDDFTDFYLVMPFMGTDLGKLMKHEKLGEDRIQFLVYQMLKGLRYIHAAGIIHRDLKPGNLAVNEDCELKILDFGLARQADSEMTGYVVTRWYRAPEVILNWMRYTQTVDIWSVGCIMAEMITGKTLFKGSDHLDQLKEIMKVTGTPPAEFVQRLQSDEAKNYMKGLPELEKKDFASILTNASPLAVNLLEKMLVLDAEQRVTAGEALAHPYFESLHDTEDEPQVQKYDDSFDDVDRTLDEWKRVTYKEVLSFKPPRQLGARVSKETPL

EPH-B4 = target: T3, EPH-B4 (Homo sapiens, UniProt P54760); conditions: read-out: Remaining protein kinase activity
T3 sequence (P54760 16-987): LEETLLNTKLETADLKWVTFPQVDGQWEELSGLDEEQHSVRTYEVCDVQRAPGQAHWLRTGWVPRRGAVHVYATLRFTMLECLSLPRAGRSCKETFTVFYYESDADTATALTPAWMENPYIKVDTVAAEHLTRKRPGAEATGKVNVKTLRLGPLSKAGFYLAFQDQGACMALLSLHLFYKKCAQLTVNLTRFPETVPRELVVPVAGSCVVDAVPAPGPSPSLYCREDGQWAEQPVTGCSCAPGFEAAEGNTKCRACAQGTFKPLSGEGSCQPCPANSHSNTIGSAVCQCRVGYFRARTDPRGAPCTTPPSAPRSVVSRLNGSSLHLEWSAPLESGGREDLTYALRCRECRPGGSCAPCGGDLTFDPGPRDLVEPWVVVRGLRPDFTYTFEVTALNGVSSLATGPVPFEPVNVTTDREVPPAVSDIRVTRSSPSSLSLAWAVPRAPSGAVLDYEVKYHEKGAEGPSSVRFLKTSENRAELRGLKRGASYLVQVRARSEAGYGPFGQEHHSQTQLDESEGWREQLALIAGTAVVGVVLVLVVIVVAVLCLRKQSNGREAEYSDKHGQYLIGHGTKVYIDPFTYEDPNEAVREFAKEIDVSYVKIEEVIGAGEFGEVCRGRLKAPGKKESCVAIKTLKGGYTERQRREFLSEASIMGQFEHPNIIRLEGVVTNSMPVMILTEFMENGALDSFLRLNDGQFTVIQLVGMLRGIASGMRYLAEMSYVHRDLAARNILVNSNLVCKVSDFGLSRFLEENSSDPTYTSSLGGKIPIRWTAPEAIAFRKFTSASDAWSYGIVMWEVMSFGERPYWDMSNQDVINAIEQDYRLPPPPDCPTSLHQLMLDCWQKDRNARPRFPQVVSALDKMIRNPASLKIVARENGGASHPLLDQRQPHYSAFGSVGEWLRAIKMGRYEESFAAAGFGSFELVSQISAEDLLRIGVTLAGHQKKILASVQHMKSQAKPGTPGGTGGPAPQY

PAK5 = PAK5 (Homo sapiens, UniProt Q9P286); conditions: read-out: Remaining protein kinase activity
Chain of PAK5 (Q9P286 whole entry): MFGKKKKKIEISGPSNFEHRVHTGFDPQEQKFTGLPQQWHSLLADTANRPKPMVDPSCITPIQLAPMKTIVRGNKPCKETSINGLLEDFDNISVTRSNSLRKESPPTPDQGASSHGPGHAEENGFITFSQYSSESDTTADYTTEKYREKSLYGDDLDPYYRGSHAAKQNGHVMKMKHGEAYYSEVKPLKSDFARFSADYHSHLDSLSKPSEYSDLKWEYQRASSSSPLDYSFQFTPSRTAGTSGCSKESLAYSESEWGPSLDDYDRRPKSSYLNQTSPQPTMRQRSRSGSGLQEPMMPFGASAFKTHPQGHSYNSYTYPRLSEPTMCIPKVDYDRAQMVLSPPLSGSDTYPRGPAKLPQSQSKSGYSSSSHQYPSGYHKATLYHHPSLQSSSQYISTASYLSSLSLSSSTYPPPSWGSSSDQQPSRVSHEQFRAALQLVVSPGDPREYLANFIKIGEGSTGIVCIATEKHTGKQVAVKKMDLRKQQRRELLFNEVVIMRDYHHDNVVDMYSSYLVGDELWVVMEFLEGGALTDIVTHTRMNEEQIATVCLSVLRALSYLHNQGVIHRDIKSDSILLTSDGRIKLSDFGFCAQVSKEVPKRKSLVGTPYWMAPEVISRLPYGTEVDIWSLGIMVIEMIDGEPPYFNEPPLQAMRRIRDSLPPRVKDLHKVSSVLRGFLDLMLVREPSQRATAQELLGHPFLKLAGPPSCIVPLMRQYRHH

CHK2 = CHK2 (Homo sapiens, UniProt O96017); conditions: read-out: Remaining protein kinase activity
Chain of CHK2 (O96017 whole entry): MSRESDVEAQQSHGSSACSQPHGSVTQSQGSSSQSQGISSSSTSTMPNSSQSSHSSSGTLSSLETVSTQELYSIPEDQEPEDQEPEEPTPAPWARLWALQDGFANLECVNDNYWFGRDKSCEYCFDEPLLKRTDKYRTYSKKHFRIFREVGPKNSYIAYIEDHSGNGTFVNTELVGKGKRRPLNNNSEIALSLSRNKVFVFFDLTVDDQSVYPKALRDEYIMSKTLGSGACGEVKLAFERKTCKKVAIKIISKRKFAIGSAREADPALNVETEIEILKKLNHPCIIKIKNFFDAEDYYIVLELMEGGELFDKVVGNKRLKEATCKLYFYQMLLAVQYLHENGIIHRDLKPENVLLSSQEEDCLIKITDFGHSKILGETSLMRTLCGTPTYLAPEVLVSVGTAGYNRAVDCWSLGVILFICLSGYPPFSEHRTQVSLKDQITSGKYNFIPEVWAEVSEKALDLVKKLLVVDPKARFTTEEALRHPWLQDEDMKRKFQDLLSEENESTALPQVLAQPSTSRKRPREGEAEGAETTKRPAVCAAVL

Chain of TTBK1 (Q5TCY1 whole entry): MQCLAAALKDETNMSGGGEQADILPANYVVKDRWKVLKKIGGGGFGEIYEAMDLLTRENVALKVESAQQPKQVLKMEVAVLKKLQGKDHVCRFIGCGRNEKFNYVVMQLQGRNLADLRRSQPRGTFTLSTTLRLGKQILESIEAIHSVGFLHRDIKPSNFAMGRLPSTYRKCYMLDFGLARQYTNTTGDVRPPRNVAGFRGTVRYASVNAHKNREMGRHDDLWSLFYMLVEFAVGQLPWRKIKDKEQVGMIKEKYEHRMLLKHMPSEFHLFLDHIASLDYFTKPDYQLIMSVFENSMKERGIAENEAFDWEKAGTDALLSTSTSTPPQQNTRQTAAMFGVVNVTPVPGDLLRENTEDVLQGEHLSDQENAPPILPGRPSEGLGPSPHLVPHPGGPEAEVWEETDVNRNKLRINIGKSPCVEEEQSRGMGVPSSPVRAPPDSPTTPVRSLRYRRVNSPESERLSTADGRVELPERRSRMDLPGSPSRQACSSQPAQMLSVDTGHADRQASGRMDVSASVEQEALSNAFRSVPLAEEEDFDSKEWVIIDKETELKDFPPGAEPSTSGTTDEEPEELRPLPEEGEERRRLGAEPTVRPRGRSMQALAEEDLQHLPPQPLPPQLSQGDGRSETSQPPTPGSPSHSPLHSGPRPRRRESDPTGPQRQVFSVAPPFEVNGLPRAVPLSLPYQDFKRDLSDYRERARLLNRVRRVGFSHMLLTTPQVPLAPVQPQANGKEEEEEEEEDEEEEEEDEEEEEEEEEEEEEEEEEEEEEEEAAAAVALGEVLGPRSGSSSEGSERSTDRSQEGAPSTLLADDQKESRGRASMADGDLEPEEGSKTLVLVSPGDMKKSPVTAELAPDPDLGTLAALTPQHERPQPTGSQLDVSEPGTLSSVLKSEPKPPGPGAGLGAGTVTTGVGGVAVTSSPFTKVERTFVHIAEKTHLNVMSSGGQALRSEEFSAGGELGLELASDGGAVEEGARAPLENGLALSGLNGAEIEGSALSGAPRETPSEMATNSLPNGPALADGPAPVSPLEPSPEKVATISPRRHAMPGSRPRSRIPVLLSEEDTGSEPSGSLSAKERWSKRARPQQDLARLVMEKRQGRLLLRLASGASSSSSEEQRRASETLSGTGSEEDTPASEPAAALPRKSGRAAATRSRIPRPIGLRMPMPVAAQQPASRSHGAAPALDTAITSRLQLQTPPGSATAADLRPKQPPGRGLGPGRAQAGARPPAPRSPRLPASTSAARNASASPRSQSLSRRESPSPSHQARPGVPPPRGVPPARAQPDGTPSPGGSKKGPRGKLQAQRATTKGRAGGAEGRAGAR

Row | SMILES | remaining activity at 100 µM (TTBK1; TTBK1) [%] | remaining activity at 1 µM (TTBK1) [%] | Remaining protein kinase activity (ULK1; 1 μM) [%] | Remaining protein kinase activity (ULK1; 100 μM) [%] | remaining activity at 1 µM (p38g MAPK) [%] | remaining activity at 100 µM (p38g MAPK) [%] | remaining activity at 100 µM (EPH-B4) [%] | remaining activity at 1 µM (PAK5) [%] | remaining activity at 100 µM (PAK5) [%] | remaining activity at 1 µM (CHK2) [%] | remaining activity at 100 µM (CHK2) [%] | remaining activity at 1 µM (TTBK1; TTBK1, 1 μM) [%] | remaining activity at 1 µM (p38g MAPK; p38g MAPK, 1 μM) [%] | remaining activity at 100 µM (p38g MAPK; p38g MAPK, 100 μM) [%] | remaining activity at 1 µM (EPH-B4; EPH-B4, 1 μM) [%] | remaining activity at 100 µM (EPH-B4; EPH-B4, 100 μM) [%] | remaining activity at 1 µM (PAK5; PAK5, 1 μM) [%] | remaining activity at 100 µM (PAK5; PAK5, 100 μM) [%] | remaining activity at 1 µM (CHK2; CHK2, 1 μM) [%] | remaining activity at 100 µM (CHK2; CHK2, 100 μM) [%]
1 | COc1ccc2sc(-c3cncc(NC(C)=O)c3)nc2c1 [PST-001, N-(5-(5-Methoxybenzo[d]thiazol-2-yl)pyridin-3-yl)acetamide] | 110 | 109 | 129 | 120 | 125 | 105 | 130 | 113 | 129 | 105 | 85 | – | – | – | – | – | – | – | – | –
2 | COc1ccc2sc(-c3cncc(N)c3)nc2c1 [compound 1, 5-(5-Methoxybenzo[d]thiazol-2-yl)pyridin-3-amine] | 90 | – | 116 | 77 | – | – | – | – | – | – | – | 109 | 110 | 37 | 112 | 97 | 111 | 70 | 114 | 52
